Test results taken from ChEMBL document CHEMBL1201861, “Genomics of Drug Sensitity in Cancer screening data, Wellcome Trust Sanger Institute”.

Columns and labels:
Assay in all cases: cells
COLO-824 = format: functional, cell-based, Homo sapiens; conditions: Homo sapiens, COLO-824
Description: SANGER: Inhibition of human COLO-824 cell growth in a cell viability assay.

D-247MG = format: functional, cell-based, Homo sapiens; conditions: Homo sapiens, D-247MG
Description: SANGER: Inhibition of human D-247MG cell growth in a cell viability assay.

DMS-114 = format: functional, cell-based, Homo sapiens; conditions: Homo sapiens, DMS-114
EFM-19 = format: functional, cell-based, Homo sapiens; conditions: Homo sapiens, EFM-19;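 note: growth inhibition of human EFM-19 cells, measured in a cell viability assay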
Description: SANGER: Inhibition of human EFM-19 cell growth in a cell viability assay.

EW-16 = format: functional, cell-based, Homo sapiens; conditions: Homo sapiens, EW-16;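 note: growth inhibition of human EW-16 cells, read out as cell viability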
Description: SANGER: Inhibition of human EW-16 cell growth in a cell viability assay.

GAMG = format: functional, cell-based, Homo sapiens; conditions: Homo sapiens, GAMG;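 note: cell growth inhibition measured by a viability assay in the GAMG human cell line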
Description: SANGER: Inhibition of human GAMG cell growth in a cell viability assay.

GB-1 = format: functional, cell-based, Homo sapiens; conditions: Homo sapiens, GB-1;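 note: growth of GB-1 cells judged by a viability assay, IC50 marks the concentration inhibiting growth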
Description: SANGER: Inhibition of human GB-1 cell growth in a cell viability assay.

GP5d = format: functional, cell-based, Homo sapiens; conditions: Homo sapiens, GP5d;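 note: growth inhibition of human GP5d cells, read out with a cell viability assay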
Description: SANGER: Inhibition of human GP5d cell growth in a cell viability assay.

HSC-2 = format: functional, cell-based, Homo sapiens; conditions: Homo sapiens, HSC-2;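 note: growth inhibition of human HSC-2 cells, read out by a cell viability assay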
Description: SANGER: Inhibition of human HSC-2 cell growth in a cell viability assay.

HSC-3 = format: functional, cell-based, Homo sapiens; conditions: Homo sapiens, HSC-3
Description: SANGER: Inhibition of human HSC-3 cell growth in a cell viability assay.

HT-1376 = format: functional, cell-based, Homo sapiens; conditions: Homo sapiens, HT-1376
Description: SANGER: Inhibition of human HT-1376 cell growth in a cell viability assay.

IGR-1 = format: functional, cell-based, Homo sapiens; conditions: Homo sapiens, IGR-1;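 note: growth inhibition of human IGR-1 cells, read out with a cell viability assay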
Description: SANGER: Inhibition of human IGR-1 cell growth in a cell viability assay.

JVM-2 = format: functional, cell-based; conditions: Homo sapiens;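 note: growth inhibition of JVM-2 cells determined by a cell viability assay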
Description: SANGER: Inhibition of human JVM-2 cell growth in a cell viability assay.

KYSE-180 = format: functional, cell-based, Homo sapiens; conditions: Homo sapiens, KYSE-180;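 note: growth inhibition of KYSE-180 cells, read out with a cell viability assay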
Description: SANGER: Inhibition of human KYSE-180 cell growth in a cell viability assay.

KYSE-510 = format: functional, cell-based, Homo sapiens; conditions: Homo sapiens, KYSE-510;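 note: cell viability readout used to measure how strongly growth of the cell line is suppressed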
Description: SANGER: Inhibition of human KYSE-510 cell growth in a cell viability assay.

LB1047-RCC = format: functional, cell-based, Homo sapiens; conditions: Homo sapiens, LB1047-RCC;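 note: inhibition of cell growth, determined with a cell viability assay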
Description: SANGER: Inhibition of human LB1047-RCC cell growth in a cell viability assay.

LS-411N = format: functional, cell-based, Homo sapiens; conditions: Homo sapiens, LS-411N
M059J = format: functional, cell-based, Homo sapiens; conditions: Homo sapiens, M059J;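 note: growth inhibition of M059J cells, read out with a cell viability assay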
Description: SANGER: Inhibition of human M059J cell growth in a cell viability assay.

MHH-ES-1 = format: functional, cell-based, Homo sapiens; conditions: Homo sapiens, MHH-ES-1;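 note: cell growth inhibition measured by a cell viability assay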
Description: SANGER: Inhibition of human MHH-ES-1 cell growth in a cell viability assay.

MLMA = format: functional, cell-based, Homo sapiens; conditions: Homo sapiens, MLMA;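 note: growth inhibition of MLMA cells (human), determined through a cell viability readout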
Description: SANGER: Inhibition of human MLMA cell growth in a cell viability assay.

MS-1 = format: functional, cell-based; conditions: Homo sapiens
Description: SANGER: Inhibition of human MS-1 cell growth in a cell viability assay.

MeWo = format: functional, cell-based, Homo sapiens; conditions: Homo sapiens, MeWo;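 note: growth inhibition of MeWo cells, determined by a cell viability readout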
Description: SANGER: Inhibition of human Mewo cell growth in a cell viability assay.

NB13 = format: functional, cell-based, Homo sapiens; conditions: Homo sapiens, NB13;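 note: cell viability readout measuring growth inhibition of human NB13 cells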
Description: SANGER: Inhibition of human NB13 cell growth in a cell viability assay.

NB6 = format: functional, cell-based, Homo sapiens; conditions: Homo sapiens, NB6;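 note: growth inhibition of NB6 cells, read out by a cell viability assay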
Description: SANGER: Inhibition of human NB6 cell growth in a cell viability assay.

NCI-H1299 = format: functional, cell-based, Homo sapiens; conditions: Homo sapiens, NCI-H1299;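 note: growth inhibition of human NCI-H1299 cells, read out by a cell viability assay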
Description: SANGER: Inhibition of human NCI-H1299 cell growth in a cell viability assay.

NCI-H1993 = format: functional, cell-based, Homo sapiens; conditions: Homo sapiens, NCI-H1993;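 note: growth inhibition of the cancer cell line, assessed with a cell viability assay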
Description: SANGER: Inhibition of human NCI-H1993 cell growth in a cell viability assay.

NCI-H2030 = format: functional, cell-based, Homo sapiens; conditions: Homo sapiens, NCI-H2030;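 note: growth inhibition of human NCI-H2030 cells, read out by a cell viability assay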
Description: SANGER: Inhibition of human NCI-H2030 cell growth in a cell viability assay.

NCI-H2170 = format: functional, cell-based, Homo sapiens; conditions: Homo sapiens, NCI-H2170;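 note: cell viability assay measuring growth inhibition of human NCI-H2170 cancer cells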
NCI-H226 = format: functional, cell-based, Homo sapiens; conditions: Homo sapiens, NCI-H226;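 note: cell viability read-out used to gauge growth inhibition of the cells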
Description: SANGER: Inhibition of human NCI-H226 cell growth in a cell viability assay.

NCI-H2342 = format: functional, cell-based; conditions: Homo sapiens;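 note: growth inhibition of the cancer cell line, determined with a cell viability assay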
Description: SANGER: Inhibition of human NCI-H2342 cell growth in a cell viability assay.

NCI-H2452 = format: functional, cell-based, Homo sapiens; conditions: Homo sapiens, NCI-H2452;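 note: growth inhibition of NCI-H2452 cells, read out with a cell viability assay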
Description: SANGER: Inhibition of human NCI-H2452 cell growth in a cell viability assay.

NCI-H727 = format: functional, cell-based, Homo sapiens; conditions: Homo sapiens, NCI-H727;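 note: growth inhibition of human NCI-H727 cells, read out with a cell viability assay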
Description: SANGER: Inhibition of human NCI-H727 cell growth in a cell viability assay.

NOS-1 = format: functional, cell-based, Homo sapiens; conditions: Homo sapiens, NOS-1;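 note: growth inhibition of the human NOS-1 cell line, read out with a cell viability assay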
Description: SANGER: Inhibition of human NOS-1 cell growth in a cell viability assay.

RCC10RGB = format: functional, cell-based, Homo sapiens; conditions: Homo sapiens, RCC10RGB;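 note: growth inhibition of human RCC10RGB cells, read out by a cell viability assay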
Description: SANGER: Inhibition of human RCC10RGB cell growth in a cell viability assay.

RO82-W-1 = format: functional, cell-based, Homo sapiens; conditions: Homo sapiens, RO82-W-1;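 note: growth inhibition of human RO82-W-1 cells, measured with a cell viability assay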
Description: SANGER: Inhibition of human RO82-W-1 cell growth in a cell viability assay.

SK-LU-1 = format: functional, cell-based, Homo sapiens; conditions: Homo sapiens, SK-LU-1;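 note: cell viability assay measuring growth inhibition of human SK-LU-1 cells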
Description: SANGER: Inhibition of human SK-LU-1 cell growth in a cell viability assay.

SNB-75 = format: functional, cell-based, Homo sapiens; conditions: Homo sapiens, SNB-75;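 note: cell viability assay measuring growth inhibition of human SNB-75 cells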
Description: SANGER: Inhibition of human SNB75 cell growth in a cell viability assay.

SW1710 = format: functional, cell-based, Homo sapiens; conditions: Homo sapiens, SW1710;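 note: growth inhibition of SW1710 cells, determined with a cell viability assay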
Description: SANGER: Inhibition of human SW1710 cell growth in a cell viability assay.

SW1783 = format: functional, cell-based; conditions: Homo sapiens;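 note: cell growth inhibition measured with a viability assay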
Description: SANGER: Inhibition of human SW1783 cell growth in a cell viability assay.

SW684 = format: functional, cell-based, Homo sapiens; conditions: Homo sapiens, SW684;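 note: growth inhibition of human SW684 cells, measured by a cell viability assay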
Description: SANGER: Inhibition of human SW684 cell growth in a cell viability assay.

T47D = format: functional, cell-based, Homo sapiens; conditions: Homo sapiens, T47D;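 note: growth inhibition of human T47D cells, measured with a cell viability assay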
Description: SANGER: Inhibition of human T47D cell growth in a cell viability assay.

769-P = format: functional, cell-based, Homo sapiens; conditions: Homo sapiens, 769-P
Description: SANGER: Inhibition of human 769-P cell growth in a cell viability assay.

A101D = format: functional, cell-based, Homo sapiens; conditions: Homo sapiens, A101D;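 note: growth inhibition of the cell line, measured with a viability assay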
Description: SANGER: Inhibition of human A101D cell growth in a cell viability assay.

A-375 = format: functional, cell-based, Homo sapiens; conditions: Homo sapiens, A-375;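 note: growth inhibition of A375 cells, read out with a cell viability assay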
Description: SANGER: Inhibition of human A375 cell growth in a cell viability assay.

A388 = format: functional, cell-based, Homo sapiens; conditions: Homo sapiens, A388;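 note: growth inhibition of human A388 cells, read out with a cell viability assay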
Description: SANGER: Inhibition of human A388 cell growth in a cell viability assay.

AU565 = format: functional, cell-based, Homo sapiens; conditions: Homo sapiens, AU565;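 note: cell viability assay measuring growth inhibition of human AU565 cells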
Description: SANGER: Inhibition of human AU565 cell growth in a cell viability assay.

C8166 = format: functional, cell-based; conditions: Homo sapiens;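 note: growth inhibition of human C8166 cells measured by a cell viability assay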
Description: SANGER: Inhibition of human C8166 cell growth in a cell viability assay.

UACC-893 = format: functional, cell-based, Homo sapiens; conditions: Homo sapiens, UACC-893
Description: SANGER: Inhibition of human UACC-893 cell growth in a cell viability assay.

UMC-11 = format: functional, cell-based, Homo sapiens; conditions: Homo sapiens, UMC-11;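 note: growth inhibition of UMC-11 cells, read out with a cell viability assay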
Description: SANGER: Inhibition of human UMC-11 cell growth in a cell viability assay.

Measured: IC50

Nc1ccn([C@@H]2O[C@H](CO)[C@@H](O)[C@@H]2O)c(=O)n1 [CYTARABINE]
102 nM: GP5d
1680 nM: DMS-114 | HT-1376
1730 nM: SW1710
394 nM: GAMG
1820 nM: M059J
> 2000 nM: COLO-824 | EFM-19 | GB-1 | JVM-2 | MS-1 | NB13 | NB6 | NCI-H1993 | NCI-H2170 | NCI-H226 | NCI-H2342 | NCI-H2452 | NCI-H727 | RCC10RGB | RO82-W-1 | SNB-75 | SW1783 | SW684 | T47D | A101D | AU565 | C8166 | UACC-893 | UMC-11
565 nM: KYSE-180
306 nM: KYSE-510
695 nM: LS-411N
1460 nM: HSC-2
400 nM: HSC-3
1310 nM: SK-LU-1
1240 nM: MeWo
1910 nM: NOS-1
672 nM: NCI-H1299
228 nM: 769-P
108 nM: LB1047-RCC
396 nM: A-375
740 nM: A388
1050 nM: NCI-H2030
323 nM: MHH-ES-1
1780 nM: IGR-1
266 nM: EW-16
55.5 nM: MLMA
1090 nM: D-247MG

CN(C)C/C=C/C(=O)Nc1cc2c(Nc3ccc(F)c(Cl)c3)ncnc2cc1O[C@H]1CCOC1 [AFATINIB]
37.3 nM: NCI-H2170
85 nM: AU565
212 nM: HSC-3
391 nM: KYSE-180
> 500 nM: COLO-824 | D-247MG | DMS-114 | EFM-19 | EW-16 | GAMG | GB-1 | GP5d | HT-1376 | IGR-1 | JVM-2 | KYSE-510 | LB1047-RCC | LS-411N | M059J | MHH-ES-1 | MLMA | MS-1 | MeWo | NB13 | NB6 | NCI-H1299 | NCI-H1993 | NCI-H2030 | NCI-H226 | NCI-H2342 | NCI-H2452 | NCI-H727 | NOS-1 | RCC10RGB | RO82-W-1 | SK-LU-1 | SNB-75 | SW1710 | SW1783 | SW684 | T47D | 769-P | A101D | A-375 | C8166 | UMC-11
119 nM: UACC-893
369 nM: A388
168 nM: HSC-2

O=C(NOCC1CC1)c1ccc(F)c(F)c1Nc1ccc(I)cc1Cl [CI-1040]
8880 nM: MS-1
1900 nM: A-375
1200 nM: MeWo
3690 nM: SK-LU-1
3230 nM: HSC-3
> 10000 nM: COLO-824 | D-247MG | DMS-114 | EFM-19 | GB-1 | HSC-2 | HT-1376 | IGR-1 | JVM-2 | KYSE-180 | KYSE-510 | M059J | MHH-ES-1 | MLMA | NB13 | NB6 | NCI-H1299 | NCI-H1993 | NCI-H2030 | NCI-H2170 | NCI-H226 | NCI-H2342 | NCI-H2452 | NOS-1 | RCC10RGB | RO82-W-1 | SNB-75 | SW1783 | SW684 | T47D | 769-P | A388 | AU565 | C8166 | UACC-893 | UMC-11
4020 nM: GAMG
2920 nM: NCI-H727
4740 nM: LB1047-RCC
983 nM: GP5d
8080 nM: EW-16
5620 nM: SW1710
214 nM: A101D
1410 nM: LS-411N
